Values of other authors in US11149028B2, “Methods for treating melanoma using small molecules” (NOVA SOUTHEASTERN UNIVERSITY, priority 2016, dated 2021).

Tested on: PC-3 cells
Details: read-out: IC50, apoptotic cell death of PC-3 cells; cited from earlier work

Compound: O=c1c(O)c(-c2ccc(O)c(O)c2)oc2cc(O)cc(O)c12 [quercetin]
- IC50: 100 µM
